According to ChEMBL document CHEMBL4402560, “Sarco/Endoplasmic Reticulum Calcium ATPase Inhibitors: Beyond Anticancer Perspective” (J Med Chem, 2020):
Values belong to the molecule of their own block, whether it stands above or below them.

Tests used:
[1] = Inhibition of Porcine cerebellar microsomes SERCA preincubated for 10 mins followed by addition of ATP and measured after 10 mins by colorimetric method; parameters: species or system Sus scrofa domesticus, Cerebellum
[2] = Inhibition of Porcine cardiac microsomes SERCA preincubated for 10 mins followed by addition of ATP and measured after 10 mins by colorimetric method; parameters: species or system Sus scrofa domesticus, Heart
[3] = biological target: T1, Sarcoplasmic/endoplasmic reticulum calcium ATPase 3 (Homo sapiens, UniProt Q93084); assay: Inhibition of human SERCA3a expressed in COS7 cells microsomal membranes preincubated for 10 mins followed by addition of ATP and measured after 40 mins by ELISA method; assay type: cell-based
T1 sequence (Q93084 whole entry): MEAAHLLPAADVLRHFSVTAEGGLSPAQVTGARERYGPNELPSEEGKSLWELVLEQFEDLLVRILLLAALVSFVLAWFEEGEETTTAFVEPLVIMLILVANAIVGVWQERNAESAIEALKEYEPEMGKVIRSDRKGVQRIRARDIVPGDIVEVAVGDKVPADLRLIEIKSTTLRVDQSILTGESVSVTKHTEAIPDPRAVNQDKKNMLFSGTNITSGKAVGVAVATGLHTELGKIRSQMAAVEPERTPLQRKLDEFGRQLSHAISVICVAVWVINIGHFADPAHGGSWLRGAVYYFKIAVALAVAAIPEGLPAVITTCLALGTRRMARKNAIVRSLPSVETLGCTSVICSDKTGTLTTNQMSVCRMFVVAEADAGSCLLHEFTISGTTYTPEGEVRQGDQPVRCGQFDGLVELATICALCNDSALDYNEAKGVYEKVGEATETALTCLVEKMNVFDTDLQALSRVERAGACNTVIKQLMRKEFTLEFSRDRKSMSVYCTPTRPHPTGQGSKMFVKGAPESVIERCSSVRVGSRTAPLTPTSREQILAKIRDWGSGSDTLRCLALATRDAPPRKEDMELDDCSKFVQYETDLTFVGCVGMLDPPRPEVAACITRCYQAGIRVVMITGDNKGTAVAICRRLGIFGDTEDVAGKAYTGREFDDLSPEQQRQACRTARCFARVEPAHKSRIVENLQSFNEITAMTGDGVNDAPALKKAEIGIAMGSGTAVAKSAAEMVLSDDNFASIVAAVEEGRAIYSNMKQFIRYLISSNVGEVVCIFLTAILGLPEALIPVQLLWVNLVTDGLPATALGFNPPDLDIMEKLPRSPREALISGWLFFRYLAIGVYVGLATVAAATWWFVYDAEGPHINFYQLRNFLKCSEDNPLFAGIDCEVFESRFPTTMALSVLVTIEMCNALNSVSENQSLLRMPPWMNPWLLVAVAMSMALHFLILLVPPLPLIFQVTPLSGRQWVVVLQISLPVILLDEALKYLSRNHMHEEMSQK

[4] = biological target: T2, Sarcoplasmic/endoplasmic reticulum calcium ATPase 2 (Homo sapiens, UniProt P16615); assay: Inhibition of human SERCA2b expressed in COS7 cells microsomal membranes preincubated for 10 mins followed by addition of ATP and measured after 40 mins by ELISA method; assay type: cell-based
T2 sequence (P16615 whole entry): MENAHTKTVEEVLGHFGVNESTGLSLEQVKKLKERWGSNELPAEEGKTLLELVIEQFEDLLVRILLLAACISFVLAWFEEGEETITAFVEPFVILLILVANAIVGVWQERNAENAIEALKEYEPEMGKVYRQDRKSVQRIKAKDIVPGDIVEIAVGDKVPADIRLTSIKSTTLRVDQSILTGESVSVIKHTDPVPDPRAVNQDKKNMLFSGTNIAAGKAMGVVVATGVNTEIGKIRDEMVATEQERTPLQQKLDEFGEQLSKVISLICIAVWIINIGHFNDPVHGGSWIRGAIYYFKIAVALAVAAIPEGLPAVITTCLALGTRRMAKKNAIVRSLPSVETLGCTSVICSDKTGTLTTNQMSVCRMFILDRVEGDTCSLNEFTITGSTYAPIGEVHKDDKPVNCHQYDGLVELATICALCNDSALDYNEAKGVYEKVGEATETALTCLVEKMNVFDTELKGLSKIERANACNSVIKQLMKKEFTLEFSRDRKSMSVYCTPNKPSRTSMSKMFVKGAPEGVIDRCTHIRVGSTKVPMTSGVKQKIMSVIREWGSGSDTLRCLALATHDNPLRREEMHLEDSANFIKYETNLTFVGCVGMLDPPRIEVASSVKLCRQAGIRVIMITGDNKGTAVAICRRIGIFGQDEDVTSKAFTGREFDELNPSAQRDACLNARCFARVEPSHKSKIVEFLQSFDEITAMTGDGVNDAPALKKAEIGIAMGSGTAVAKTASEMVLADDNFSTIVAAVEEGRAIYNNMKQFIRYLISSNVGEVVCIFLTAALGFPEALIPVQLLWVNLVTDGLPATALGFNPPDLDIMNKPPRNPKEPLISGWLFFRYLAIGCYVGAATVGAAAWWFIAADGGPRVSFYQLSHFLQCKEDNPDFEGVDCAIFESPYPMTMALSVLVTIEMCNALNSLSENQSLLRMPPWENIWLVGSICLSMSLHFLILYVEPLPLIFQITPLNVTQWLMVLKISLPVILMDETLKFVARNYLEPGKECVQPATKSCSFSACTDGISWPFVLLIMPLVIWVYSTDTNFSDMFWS

[5] = biological target: T1, Sarcoplasmic/endoplasmic reticulum calcium ATPase 3; assay: Inhibition of SERCA3 in human platelet microsomes by enzyme-coupled method
[6] = biological target: T3, Sarcoplasmic/endoplasmic reticulum calcium ATPase 1 (Oryctolagus cuniculus, UniProt P04191); assay: Inhibition of rabbit SERCA1b expressed in COS7 cells microsomal membranes preincubated for 10 mins followed by addition of ATP and measured after 40 mins by ELISA method; assay type: cell-based
T3 sequence (P04191 whole entry): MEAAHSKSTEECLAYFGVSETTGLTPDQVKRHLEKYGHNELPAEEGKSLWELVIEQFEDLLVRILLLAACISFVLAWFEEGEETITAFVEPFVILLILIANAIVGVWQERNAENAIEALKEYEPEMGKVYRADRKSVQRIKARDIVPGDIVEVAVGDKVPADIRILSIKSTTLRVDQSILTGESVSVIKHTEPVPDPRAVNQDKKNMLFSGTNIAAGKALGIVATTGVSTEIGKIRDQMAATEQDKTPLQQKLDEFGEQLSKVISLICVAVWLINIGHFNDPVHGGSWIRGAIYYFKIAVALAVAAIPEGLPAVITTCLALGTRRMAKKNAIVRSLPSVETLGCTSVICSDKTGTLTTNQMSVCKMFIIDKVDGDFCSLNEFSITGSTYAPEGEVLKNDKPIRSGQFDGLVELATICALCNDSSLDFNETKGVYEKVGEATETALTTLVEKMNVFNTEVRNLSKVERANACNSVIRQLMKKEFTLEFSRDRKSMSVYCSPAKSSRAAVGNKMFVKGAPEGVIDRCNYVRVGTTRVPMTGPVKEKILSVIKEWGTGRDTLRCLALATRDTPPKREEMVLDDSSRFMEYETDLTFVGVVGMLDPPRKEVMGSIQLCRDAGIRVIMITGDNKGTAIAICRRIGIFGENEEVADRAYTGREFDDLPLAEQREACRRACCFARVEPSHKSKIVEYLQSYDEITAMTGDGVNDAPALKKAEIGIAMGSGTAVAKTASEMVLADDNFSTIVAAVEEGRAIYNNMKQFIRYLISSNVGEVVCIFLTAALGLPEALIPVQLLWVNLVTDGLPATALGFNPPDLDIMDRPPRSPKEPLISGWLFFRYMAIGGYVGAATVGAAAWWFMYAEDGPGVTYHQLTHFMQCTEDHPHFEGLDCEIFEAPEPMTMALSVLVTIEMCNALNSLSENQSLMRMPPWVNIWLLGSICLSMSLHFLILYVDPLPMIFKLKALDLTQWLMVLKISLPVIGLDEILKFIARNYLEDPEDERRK

[7] = Inhibition of porcine cerebellar microsomes SERCA2b by enzyme-coupled method; parameters: species or system Sus scrofa domesticus, Cerebellum
[8] = biological target: T3, Sarcoplasmic/endoplasmic reticulum calcium ATPase 1; assay: Inhibition of rabbit skeletal muscle microsomes SERCA1a by enzyme-coupled method
[9] = Inhibition of porcine cardiac microsomes SERCA2a by enzyme-coupled method; parameters: species or system Sus scrofa domesticus, Heart
[10] = biological target: T2, Sarcoplasmic/endoplasmic reticulum calcium ATPase 2; assay: Inhibition of SERCA2b in human platelet microsomes by enzyme-coupled method
[11] = biological target: T3, Sarcoplasmic/endoplasmic reticulum calcium ATPase 1; assay: Inhibition of rabbit skeletal muscle microsomes SERCA1a incubated for 10 mins by enzyme-coupled method
MRC5 = assay: Antiproliferative activity against human MRC5 cells; assay type: functional, cell-based
BJ = assay: Antiproliferative activity against human BJ cells; assay type: functional, cell-based
MIA PaCa-2 = assay: Antiproliferative activity against human MIAPaCa2 cells; assay type: functional, cell-based
[12] = biological target: T3, Sarcoplasmic/endoplasmic reticulum calcium ATPase 1; assay: Inhibition of SERCA1 in rabbit skeletal muscle microsomes assessed as decrease in NADH absorbance by NADH-coupled enzyme assay; parameters: species or system Muscle tissue
[13] = biological target: T3, Sarcoplasmic/endoplasmic reticulum calcium ATPase 1; assay: Inhibition of rabbit skeletal muscle microsomes SERCA1a by malachite green based colorimetric method
[14] = Inhibition of SERCA2a in porcine cardiac microsomes; parameters: species or system Sus scrofa domesticus, Heart
[15] = biological target: T3, Sarcoplasmic/endoplasmic reticulum calcium ATPase 1; assay: Inhibition of rabbit skeletal muscle microsomes SERCA1a
[16] = biological target: T3, Sarcoplasmic/endoplasmic reticulum calcium ATPase 1; assay: Inhibition of rabbit skeletal muscle microsomes SERCA1a preincubated for 10 mins followed by addition of ATP and measured after 40 mins
[17] = biological target: T2, Sarcoplasmic/endoplasmic reticulum calcium ATPase 2; assay: Inhibition of SERCA2a (unknown origin)
[18] = Inhibition of SERCA in human PC3 cell microsomes by enzyme-coupled method
Homo sapiens = species: Homo sapiens; assay: Inhibition of SERCA (unknown origin) at 150 uM relative ro control
[19] = Inhibition of fish liver microsomes SERCA by enzyme-coupled method; parameters: species or system Squalius cephalus
[20] = biological target: Sarcoplasmic/endoplasmic reticulum calcium ATPase 2 (Rattus norvegicus, UniProt P11507); assay: Inhibition of rat cerebellar microsomes SERCA2b by enzyme-coupled method; parameters: species or system Cerebellum
Sequence of Sarcoplasmic/endoplasmic reticulum calcium ATPase 2 (Rattus norvegicus, UniProt P11507) (P11507 whole entry): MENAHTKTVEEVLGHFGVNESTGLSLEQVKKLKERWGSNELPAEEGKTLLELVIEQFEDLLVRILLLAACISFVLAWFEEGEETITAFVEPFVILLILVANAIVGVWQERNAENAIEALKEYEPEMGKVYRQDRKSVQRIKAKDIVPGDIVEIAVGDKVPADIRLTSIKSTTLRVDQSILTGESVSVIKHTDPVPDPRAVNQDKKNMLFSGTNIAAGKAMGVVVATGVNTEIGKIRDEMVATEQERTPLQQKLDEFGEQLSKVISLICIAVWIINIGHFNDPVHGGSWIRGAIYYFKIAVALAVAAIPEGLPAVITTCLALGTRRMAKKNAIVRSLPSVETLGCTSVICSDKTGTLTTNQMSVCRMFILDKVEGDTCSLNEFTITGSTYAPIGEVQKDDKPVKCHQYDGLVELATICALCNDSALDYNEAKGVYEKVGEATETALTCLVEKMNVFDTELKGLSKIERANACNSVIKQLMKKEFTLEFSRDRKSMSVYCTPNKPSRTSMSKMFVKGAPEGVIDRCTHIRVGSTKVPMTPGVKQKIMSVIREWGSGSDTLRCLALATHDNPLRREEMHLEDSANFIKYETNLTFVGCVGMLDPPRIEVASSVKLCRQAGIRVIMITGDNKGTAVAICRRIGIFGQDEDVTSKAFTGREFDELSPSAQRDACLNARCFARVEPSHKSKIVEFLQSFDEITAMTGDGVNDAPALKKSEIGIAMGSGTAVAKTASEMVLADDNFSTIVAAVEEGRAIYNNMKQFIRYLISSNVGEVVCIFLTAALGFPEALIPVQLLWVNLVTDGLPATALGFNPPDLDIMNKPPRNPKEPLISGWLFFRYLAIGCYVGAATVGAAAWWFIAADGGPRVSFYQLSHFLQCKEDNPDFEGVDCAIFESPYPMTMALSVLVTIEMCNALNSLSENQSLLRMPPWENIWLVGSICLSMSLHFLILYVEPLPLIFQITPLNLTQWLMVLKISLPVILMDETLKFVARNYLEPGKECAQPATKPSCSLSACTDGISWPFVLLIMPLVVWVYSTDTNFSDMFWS

[21] = biological target: T3, Sarcoplasmic/endoplasmic reticulum calcium ATPase 1; assay: Inhibition of rabbit microsomes SERCA1a by enzyme-coupled method

Molecule: O=C1CSC(c2ccccc2Cl)c2cc(Cl)ccc2N1 (centres undefined)
IC50 [14]: 9.9 µM | IC50 [15]: 6.6 µM

Molecule: C/C=C/C/C(C)=C\[C@@H]1OC(=O)C[C@H](O[C@@H]2O[C@H](CO)[C@@H](O)[C@H](OC)[C@H]2O)/C=C/C[C@H](OC)/C(C)=C/[C@@H](C)C[C@H]2C=C[C@H]1OO2
Ki [17]: 0.0013 µM | Ki [15]: 0.018 µM

Molecule: C/C=C(/C)C(=O)O[C@H]1C(C)=C2[C@H]([C@@H]1OC(=O)CCCCCCC)[C@](C)(OC(C)=O)C[C@H](OC(=O)CCC)[C@@]1(O)[C@H]2OC(=O)[C@@]1(C)O
IC50 [3]: 0.21 to 12 µM | IC50 [4]: 0.21 to 12 µM | IC50 [6]: 0.21 to 12 µM | Ki [15]: 0.011 µM

Molecule: Cc1ccc(-c2cc(C(F)(F)F)nn2-c2ccc(S(N)(=O)=O)cc2)cc1 [CELECOXIB]
IC50 [18]: 32 µM

Molecule: CC(C)(O)[C@H]1O[C@H]2CC[C@@]3(C)[C@@](O)(CC[C@H]4Cc5c([nH]c6ccccc56)[C@@]43C)C2=CC1=O [PAXILLINE]
IC50 [5]: 5 µM | IC50 [7]: 5 µM | IC50 [8]: 5 µM | IC50 [9]: 5 µM | IC50 [10]: 5 µM

Molecule: CC[C@H](C)[C@H](N)C(=O)N[C@@H](CC(N)=O)C(=O)N[C@@H](CC(C)C)C(=O)N[C@@H](CCCCN)C(=O)N[C@@H](C)C(=O)N[C@@H](CC(C)C)C(=O)N[C@@H](C)C(=O)N[C@@H](C)C(=O)N[C@@H](CC(C)C)C(=O)N[C@@H](C)C(=O)N[C@@H](CCCCN)C(=O)N[C@@H](CCCCN)C(=O)N[C@H](C(=O)N[C@@H](CC(C)C)C(=O)O)[C@@H](C)CC
Ki [8]: 1 µM

Molecule: CCCCCCCCCCCCCCCCCC(=O)O[C@@H]1[C@@H](O)[C@@H](O)[C@H](OC[C@H]2O[C@@H](Oc3c(-c4ccc(O)c(O)c4)oc4cc(O)cc(O)c4c3=O)[C@H](O)[C@@H](O)[C@@H]2O)O[C@H]1C
IC50 [12]: 35 µM

Molecule: C/C=C/C/C(C)=C\[C@H]1C/C=C/C=C/C[C@H](C)/C=C(\C)[C@@H](OC)C/C=C/[C@@H](O[C@@H]2O[C@H](CO)[C@@H](O)[C@H](OC)[C@H]2O)CC(=O)O1
Ki [17]: 0.011 µM

Molecule: CC(C)(c1ccc(O)cc1)c1ccc(O)cc1 [BISPHENOL A]
IC50 [19]: 233 µM | IC50 [20]: 2 µM | IC50 [8]: 2 µM | IC50 [21]: 233 µM

Molecule: CN(C)CCCN1c2ccccc2Sc2ccc(Cl)cc21 [CHLORPROMAZINE]
IC50 [11]: 23 µM

Molecule: C/C=C(/C)C(=O)O[C@@H]1C[C@H]2C(=C1C)[C@@H]1OC(=O)[C@@](C)(O)[C@@]1(O)[C@@H](OC(=O)CCCCn1cc([C@]3(O)CC[C@H]4[C@@H]5CCc6cc(OC)ccc6[C@H]5CC[C@@]43C)nn1)C[C@]2(C)OC(C)=O
IC50 (MRC5): 10.1 µM | IC50 (BJ): 17 µM | IC50 (MIA PaCa-2): > 50 µM

The next lines start with results.

IC50 [1]: 15 µM | IC50 [2]: 15 µM
Molecule: IVERMECTIN

Ki [3]: 8.6 µM | Ki [4]: 53 µM | IC50 [5]: 7 to 15 µM | Ki [6]: 5.8 µM | IC50 [7]: 7 to 15 µM | IC50 [8]: 3 to 15 µM | IC50 [9]: 7 to 15 µM | IC50 [10]: 7 to 15 µM
Molecule: COc1cc(/C=C/C(=O)CC(=O)/C=C/c2ccc(O)c(OC)c2)ccc1O [CURCUMIN]

IC50 [11]: 45 µM
Molecule: CN1CCN(CCCN2c3ccccc3Sc3ccc(C(F)(F)F)cc32)CC1 [TRIFLUOPERAZINE]

IC50 (MIA PaCa-2): 13.7 to 50 µM
Molecule: C/C=C(/C)C(=O)O[C@@H]1C[C@H]2C(=C1C)[C@@H]1OC(=O)[C@@](C)(O)[C@@]1(O)[C@@H](OC(=O)CCCCn1cc([C@]3(O)CC[C@H]4[C@@H]5CCC6=CC(O)CC[C@]6(C)[C@H]5CC[C@@]43C)nn1)C[C@]2(C)OC(C)=O (some centres undefined)
IC50 (MRC5): > 50 µM | IC50 (BJ): 13.7 to 50 µM

IC50 [12]: 28 µM
Molecule: CCCCC/C=C\C/C=C\CCCCCCCC(=O)O[C@@H]1[C@@H](O)[C@@H](O)[C@H](OC[C@H]2O[C@@H](Oc3c(-c4ccc(O)c(O)c4)oc4cc(O)cc(O)c4c3=O)[C@H](O)[C@@H](O)[C@@H]2O)O[C@H]1C

IC50 [13]: 1.3 µM
Molecule: Clc1cccc(C(Nc2ccnc3cc(Cl)ccc23)c2ccc(CN3CCN(c4ccnc5cc(Cl)ccc45)CC3)cc2)c1 (centres undefined)

IC50 [16]: 9 µM
Molecule: O=c1c(O)c(-c2ccccc2)oc2cc(O)cc(O)c12 [GALANGIN]

IC50 [15]: 0.27 to 0.3 µM
Molecule: CC[C@H](C)[C@H](NC(=O)CCCCCNC(=O)[C@H](Cc1ccc(O)cc1)NC(=O)[C@H](CCCNC(=N)N)NC(=O)[C@@H]1CCCN1C(=O)[C@H](CCCNC(=N)N)NC(=O)[C@H](CC(N)=O)NC(=O)[C@H](CCC(N)=O)NC(=O)[C@@H](Cc1ccc(O)cc1)N(C)C(=O)Cc1ccccc1)C(=O)N[C@@H](CC(N)=O)C(=O)N[C@@H](CC(C)C)C(=O)N[C@@H](CCCCN)C(=O)N[C@@H](C)C(=O)N[C@@H](CC(C)C)C(=O)N[C@@H](C)C(=O)N[C@@H](C)C(=O)N[C@@H](CC(C)C)C(=O)N[C@@H](C)C(=O)N[C@@H](CCCCN)C(=O)N[C@@H](CCCCN)C(=O)N[C@H](C(=O)N[C@@H](CC(C)C)C(N)=O)[C@@H](C)CC

inhibition (Homo sapiens): 100%
Molecule: O=C1c2c(O)cc(O)cc2OC2(c3ccc(O)c(O)c3)Oc3cc(-c4oc5cc(O)cc(O)c5c(=O)c4O)ccc3OC12O (centres undefined)
